Measured values: ChEMBL document CHEMBL1201862, “PubChem BioAssay data set” (2004)
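Dose response: 5 concentrations. Exposure: 48 h. Format: 96-well plates. Endpoint: linear interpolation; highest concentration if not reached. Abbreviation: GI50, concentration required for 50% inhibition of growth.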 Activity calls are given as the source filed them. No stated cut-off is given here; in the data, active = GI50 up to about 1.1 µM and inactive = higher.

Experiments:
Test in all cases: DTP human tumour cell line panel, 48 h
T47D = system: T47D
MCF7 = system: MCF7
NCI-H226 = system: NCI-H226
UACC-62 = system: UACC-62
EKVX = system: EKVX
MDA-N = system: MDA-N
SW-620 = system: SW-620
A549 = system: A549
SF-295 = system: SF-295
OVCAR-4 = system: OVCAR-4
M14 = system: M14
CAKI-1 = system: CAKI-1
ACHN = system: ACHN
SF-268 = system: SF-268
K562 = system: K562
BT-549 = system: BT-549
SNB-19 = system: SNB-19
OVCAR-8 = system: OVCAR-8
Malme-3M = system: Malme-3M

Measured: GI50

CCCCc1c(OC)cc(O)c2c1C(=O)c1[nH]c(C(=O)O)c(O)c(=O)c1C2=O
inactive: T47D 9.4 µM | MCF7 21.1 µM | NCI-H226 5.57 µM | UACC-62 2.28 µM | EKVX 2.34 µM | MDA-N 17.2 µM | SW-620 83 µM | A549 77.1 µM | SF-295 22.8 µM | OVCAR-4 18.3 µM | M14 4.83 µM | CAKI-1 13.2 µM | ACHN 2.27 µM | SF-268 1.95 µM | K562 > 100 µM | BT-549 4.47 µM | SNB-19 2.25 µM | OVCAR-8 2.27 µM

NC(=S)N/N=C(/C(=O)Nc1nc2ccc([N+](=O)[O-])cc2s1)C1C(=O)NC(=S)NC1=O
inactive: T47D 47.4 µM | MCF7 > 100 µM | NCI-H226 33.2 µM | UACC-62 > 100 µM | MDA-N > 100 µM | SW-620 > 100 µM | A549 > 100 µM | SF-295 42.2 µM | OVCAR-4 23.7 µM | M14 > 100 µM | CAKI-1 45.8 µM | ACHN 59.4 µM | SF-268 88.9 µM | K562 > 100 µM | BT-549 70.1 µM | SNB-19 76.6 µM | OVCAR-8 > 100 µM

CCCCCCc1ccc(CCCCCCCC(=O)O)o1
inactive: T47D > 100 µM | MCF7 44.8 µM | NCI-H226 94 µM | EKVX > 100 µM | MDA-N > 100 µM | SW-620 > 100 µM | A549 50 µM | SF-295 55.5 µM | OVCAR-4 > 100 µM | M14 > 100 µM | CAKI-1 > 100 µM | ACHN 62.4 µM | K562 22.3 µM | BT-549 > 100 µM | SNB-19 > 100 µM | OVCAR-8 > 100 µM

CCSC1=N/C(=C\c2ccco2)C(NN)=N1
inactive: T47D > 50 µM | NCI-H226 > 50 µM | UACC-62 > 50 µM | EKVX > 50 µM | MDA-N > 50 µM | SW-620 > 50 µM | A549 > 50 µM | SF-295 > 50 µM | M14 > 50 µM | CAKI-1 > 50 µM | ACHN > 50 µM | SF-268 > 50 µM | K562 > 50 µM | BT-549 > 50 µM | Malme-3M > 50 µM | SNB-19 > 50 µM | OVCAR-8 > 50 µM

C/C=C/C=C\C1OC(O)([C@H](CC)C(=O)NC/C=C/C=C(\C)[C@H](OC)C(C)C2OC(\C=C/C=C/C=C(\C)C(=O)c3c(O)ccn(C)c3=O)[C@H](O)[C@@H]2O)C(O)C(O)C1(C)C (stereo partly drawn)
inactive: T47D 40.2 µM | MCF7 > 100 µM | NCI-H226 > 100 µM | UACC-62 96.2 µM | EKVX > 100 µM | MDA-N > 100 µM | SW-620 > 100 µM | A549 > 100 µM | SF-295 > 100 µM | OVCAR-4 > 100 µM | M14 > 100 µM | CAKI-1 > 100 µM | ACHN > 100 µM | SF-268 > 100 µM | K562 73.5 µM | BT-549 > 100 µM | SNB-19 > 100 µM | OVCAR-8 82.8 µM

C=C(C)[C@@H]1CCC2=C(CC[C@]3(C)[C@@H]([C@@H](CCC=C(C)C)C(=O)O)[C@H](O)C[C@@]23C)[C@@]1(C)CCC(=O)O [PORICOIC ACID G]
inactive: T47D > 100 µM | NCI-H226 57.3 µM | EKVX 44.6 µM | MDA-N 86.3 µM | SW-620 > 100 µM | A549 42.1 µM | SF-295 50.4 µM | OVCAR-4 > 100 µM | M14 99.8 µM | CAKI-1 83.6 µM | ACHN 75.2 µM | SF-268 94.8 µM | K562 53.2 µM | BT-549 71.9 µM | Malme-3M > 100 µM | SNB-19 46 µM | OVCAR-8 > 100 µM
